The results in this text go back to patent US9873696B2, “Neprilysin inhibitors” (THERAVANCE BIOPHARMA R&D IP, LLC, priority 2010, dated 2018).

This test addresses T1, human NEP (Homo sapiens, UniProt P08473).
T1 construct: purchased R&D Systems, Minneapolis, Minn; 1182-ZN
As to the kind of experiment: In vitro enzyme inhibition assay at human NEP (Assay 1). The format is biochemical. As to conditions: recombinant enzyme, fluorogenic peptide substrate, 37° C. The gist of the method:
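Recombinant enzyme preincubated with compound 30 min at 37 °C, then 10 μM Mca-D-Arg-Arg-Leu-Dap-(Dnp)-OH added in 50 mM HEPES pH 7.5, 100 mM NaCl, 0.01% Tween-20, 10 μM ZnSO4; stopped after 20 min with acetic acid. Fluorescence read at 320/405 nm; Ki from nonlinear fit of v=v0/[1+(I/K′)], reported as pKi.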

Bounds are passed on as bounds.

T1 sequence (P08473 whole entry): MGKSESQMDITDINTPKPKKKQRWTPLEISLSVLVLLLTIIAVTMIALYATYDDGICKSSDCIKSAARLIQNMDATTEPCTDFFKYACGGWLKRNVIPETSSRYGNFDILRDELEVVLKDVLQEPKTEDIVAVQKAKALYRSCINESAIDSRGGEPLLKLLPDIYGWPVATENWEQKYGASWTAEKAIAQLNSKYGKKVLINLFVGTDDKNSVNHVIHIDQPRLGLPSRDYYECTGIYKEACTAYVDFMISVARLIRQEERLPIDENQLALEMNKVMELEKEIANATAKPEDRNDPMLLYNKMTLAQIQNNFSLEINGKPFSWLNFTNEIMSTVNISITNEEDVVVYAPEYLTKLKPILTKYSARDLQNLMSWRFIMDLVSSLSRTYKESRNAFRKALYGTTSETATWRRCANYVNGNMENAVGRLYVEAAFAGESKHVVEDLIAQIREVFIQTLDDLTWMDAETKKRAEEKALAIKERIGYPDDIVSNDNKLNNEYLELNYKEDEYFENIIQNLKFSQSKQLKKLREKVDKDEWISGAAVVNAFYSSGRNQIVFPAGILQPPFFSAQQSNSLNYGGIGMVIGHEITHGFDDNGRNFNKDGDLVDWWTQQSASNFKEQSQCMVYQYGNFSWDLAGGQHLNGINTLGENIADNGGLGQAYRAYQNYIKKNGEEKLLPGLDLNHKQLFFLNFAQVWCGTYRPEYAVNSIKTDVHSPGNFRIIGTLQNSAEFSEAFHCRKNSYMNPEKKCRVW

With `O=C(O)c1cc(C(=O)NN(Cc2ccc(-c3cccc(Cl)c3)cc2)C[C@@H](O)C(=O)O)ncn1` [Example 4-35, 6-[N′-((R)-2-Carboxy-2-hydroxy-ethyl)-N′-(3′-chlorobiphenyl-4-ylmethyl)-hydrazinocarbonyl]-pyrimidine-4-carboxylic acid], the Ki is no more than 1 nM. The figure for `O=C(NN(Cc1ccc(-c2cccc(Cl)c2)cc1)C[C@@H](O)C(=O)O)c1cc(O)nc(O)n1` [Example 4-36, (R)-3-[N-(3′-Chlorobiphenyl-4-ylmethyl)-N′-(2,6-dihydroxy-pyrimidine-4-carbonyl)-hydrazino]-2-hydroxy-propionic acid] is 12.6 to 100 nM; for `O=C(NN(Cc1ccc(-c2cccc(Cl)c2)cc1)C[C@@H](O)C(=O)O)c1ccnc(O)n1` [Example 4-37, (R)-3-[N-(3′-Chlorobiphenyl-4-ylmethyl)-N′-(2-hydroxy-pyrimidine-4-carbonyl)-hydrazino]-2-hydroxy-propionic acid] it is 12.6 to 100 nM; for `O=C(O)c1cc(C(=O)NN(Cc2ccc(-c3cccc(Cl)c3)cc2)C[C@@H](O)C(=O)O)nc(O)n1` [Example 4-38, 6-[N′-((R)-2-Carboxy-2-hydroxy-ethyl)-N′-(3′-chlorobiphenyl-4-ylmethyl)-hydrazinocarbonyl]-2-hydroxy-pyrimidine-4-carboxylic acid] it is no more than 1 nM. With `O=C(NN(Cc1ccc(-c2cccc(Cl)c2)cc1)C[C@@H](O)C(=O)O)c1c[nH]c(=O)o1` [Example 4-39, (R)-3-[N-(3′-Chlorobiphenyl-4-ylmethyl)-N′-(2-oxo-2,3-dihydro-oxazole-5-carbonyl)-hydrazino]-2-hydroxy-propionic acid] the figure was 1.26 to 10 nM; with `O=C(NN(Cc1ccc(-c2cccc(Cl)c2)cc1)C[C@@H](O)C(=O)O)c1cnc(O)s1` [Example 4-40, (R)-3-[N-(3′-Chlorobiphenyl-4-ylmethyl)-N′-(2-hydroxy-thiazole-5-carbonyl)-hydrazino]-2-hydroxy-propionic acid], 1.26 to 10 nM. With `O=C(NN(Cc1ccc(-c2cccc(Cl)c2)cc1)C[C@@H](O)C(=O)O)c1ccc2[nH]nnc2c1F` [Example 4-42, (R)-3-[N-(3′-Chlorobiphenyl-4-ylmethyl)-N′-(4-fluoro-1H-benzotriazole-5-carbonyl)-hydrazino]-2-hydroxy-propionic acid] the figure was 1.26 to 10 nM; with `O=C(NN(Cc1ccc(-c2cccc(F)c2)cc1)C[C@@H](O)C(=O)O)c1cc(O)no1` [Example 5-1, (R)-3-[N-(3′-Fluoro-biphenyl-4-ylmethyl)-N′-(3-hydroxy-isoxazole-5-carbonyl)-hydrazino]-2-hydroxy-propionic acid], 1.26 to 10 nM; with `O=C(NN(Cc1ccc(-c2cccc(C(F)(F)F)c2)cc1)C[C@@H](O)C(=O)O)c1cc(O)no1` [Example 5-2, (R)-2-Hydroxy-3-[N′-(3-hydroxy-isoxazole-5-carbonyl)-N-(3′-trifluoromethyl-biphenyl-4-ylmethyl)-hydrazino]-propionic acid], 12.6 to 100 nM. For the molecule `O=C(NN(Cc1ccc(-c2cccc(O)c2)cc1)C[C@H](O)C(=O)O)c1cc(O)no1` [Example 5-3, (S)-2-Hydroxy-3-[N-(3′-hydroxy-biphenyl-4-ylmethyl)-N′-(3-hydroxy-isoxazole-5-carbonyl)-hydrazino]-propionic acid], the Ki is 1.26 to 10 nM. The figure for `Cc1cccc(-c2ccc(CN(C[C@H](O)C(=O)O)NC(=O)c3cc(O)no3)cc2)c1` [Example 5-4, (S)-2-Hydroxy-3-[N′-(3-hydroxy-isoxazole-5-carbonyl)-N-(3′-methyl-biphenyl-4-ylmethyl)-hydrazino]-propionic acid] is no more than 1 nM. In the case of `COc1ccccc1-c1ccc(CN(C[C@@H](O)C(=O)O)NC(=O)c2cc(O)no2)cc1` [Example 5-5, (R)-2-Hydroxy-3-[N′-(3-hydroxy-isoxazole-5-carbonyl)-N-(2′-methoxy-biphenyl-4-ylmethyl)-hydrazino]-propionic acid], the Ki was 1.26 to 10 nM. Consider `O=C(NN(Cc1ccc(-c2ccccc2O)cc1)C[C@@H](O)C(=O)O)c1cc(O)no1` [Example 5-6, (R)-2-Hydroxy-3-[N-(2′-hydroxy-biphenyl-4-ylmethyl)-N′-(3-hydroxy-isoxazole-5-carbonyl)-hydrazino]-propionic acid], for which the Ki was 1.26 to 10 nM. `O=C(NN(Cc1ccc(-c2ccccc2Cl)cc1)C[C@@H](O)C(=O)O)c1cc(O)no1` [Example 5-7, (R)-3-[N-(2′-Chloro-biphenyl-4-ylmethyl)-N′-(3-hydroxy-isoxazole-5-carbonyl)-hydrazino]-2-hydroxy-propionic acid]: the Ki is 1.26 to 10 nM. In the case of `O=C(NN(Cc1ccc(-c2ccccc2F)cc1)C[C@@H](O)C(=O)O)c1cc(O)no1` [Example 5-8, (R)-3-[N-(2′-Fluoro-biphenyl-4-ylmethyl)-N′-(3-hydroxy-isoxazole-5-carbonyl)-hydrazino]-2-hydroxy-propionic acid], the Ki is 1.26 to 10 nM. For `COc1ccccc1-c1ccc(CN(C[C@H](O)C(=O)O)NC(=O)c2cc(C(C)=O)n[nH]2)cc1` [Example 5-9, (S)-3-[N′-(5-Acetyl-2H-pyrazole-3-carbonyl)-N-(2′-methoxy-biphenyl-4-ylmethyl)-hydrazino]-2-hydroxy-propionic acid], the Ki is 1.26 to 10 nM. The figure for `COc1ccccc1-c1ccc(CN(C[C@@H](O)C(=O)O)NC(=O)c2nnn[nH]2)cc1` [Example 5-10, (R)-2-Hydroxy-3-[N-(2′-methoxy-biphenyl-4-ylmethyl)-N′-(1H-tetrazole-5-carbonyl)-hydrazino]-propionic acid] is 1.26 to 10 nM; for `O=C(NN(Cc1ccc(-c2cc(Cl)ccc2F)cc1)C[C@@H](O)C(=O)O)c1nnn[nH]1` [Example 6A, (R)-3-[N-(5′-Chloro-2′-fluorobiphenyl-4-ylmethyl)-N′-(1H-tetrazole-5-carbonyl)-hydrazino]-2-hydroxypropionic Acid] it is no more than 1 nM; for `O=C(NN(Cc1ccc(-c2cc(Cl)ccc2Cl)cc1)C[C@@H](O)C(=O)O)c1cn(O)nn1` [Example 7A, (R)-3-[N-(2′,5′-Dichlorobiphenyl-4-ylmethyl)-N′-(1-hydroxy-H-[1,2,3]triazole-4-carbonyl)-hydrazino]-2-hydroxypropionic Acid] it is no more than 1 nM. With `Cc1ccc(Cl)cc1-c1ccc(CN(C[C@@H](O)C(=O)O)NC(=O)c2cc(O)no2)cc1` [Example 8-1, (R)-3-[N-(5′-Chloro-2′-methyl-biphenyl-4-ylmethyl)-N′-(3-hydroxy-isoxazole-5-carbonyl)-hydrazino]-2-hydroxy-propionic acid] the figure was no more than 1 nM; with `COc1ccc(Cl)cc1-c1ccc(CN(C[C@@H](O)C(=O)O)NC(=O)c2cc(O)no2)cc1` [Example 8-2, (R)-3-[N-(5′-Chloro-2′-methoxy-biphenyl-4-ylmethyl)-N′-(3-hydroxy-isoxazole-5-carbonyl)-hydrazino]-2-hydroxy-propionic acid], no more than 1 nM. As to `COc1ccc(F)cc1-c1ccc(CN(C[C@@H](O)C(=O)O)NC(=O)c2cc(O)no2)cc1` [Example 8-4, (R)-3-[N-(5′-Fluoro-2′-methoxy-biphenyl-4-ylmethyl)-N′-(3-hydroxy-isoxazole-5-carbonyl)-hydrazino]-2-hydroxy-propionic acid], the Ki is 1.26 to 10 nM.

For orientation: Ki means a measure of affinity in units of concentration, obtained from inhibition or displacement.
